The target of test [1] is T1, human GPR120 (Homo sapiens (Human), UniProt Q5NUL3). The test is described as follows: FLIPR assay: intracellular calcium in CHO cells expressing human GPR120. Format: cell-based. Particulars: FLIPR calcium assay, CHO cells expressing human GPR120, agonist action. As to the method: All compounds were tested under the FLIPR assay unless otherwise indicated.
Primers were synthesized in the domains on the opposite sides of the base sequences of the ORFs of the known GPCR and GPR120 in GenBank Accession NOs. […] The base sequences of the primers used are described below. The restriction enzymes, BamHI and EcoRI, recognition sites were introduced for subcloning, respectively.
As samples for PCR, human small intestine Marathon-ready cDNA (CLONTECH, current corporate name: TaKaRa) and cDMA obtained by reverse transcription of mouse BAT-derived RNA were used for human and mouse GPR120 receptor genes, respectively.
Using KOD Plus (TOYOBO) for PCR, 30 cycles of 94° C. for 2 minutes, 94° C. for 15 seconds, 55° C. for 30 seconds and 68° C. for 1 minute were carried out to effect reaction, followed by addition of 0.5 units of ExTaq (TaKaRa) and incubation at 72° C. for 10 minutes to carry out A-addition reaction to terminals. For mouse PCR, 35 cycles were carried out on the condition of a final DMSO concentration of 2%.
Cloning of amplified PCR products was carried out using pCR2.1-TOPO TA cloning kit (Invitrogen). For verification of base sequences, electrophoresis was carried out using BigDye Terminator Cycle Sequencing Ready Reaction Kit Ver.
The GPR120 receptor genes cloned into pCR2.1-TOPO vectors, into which the restriction enzymes, BamHI and EcoRI, recognition sites were introduced, were excised from the vectors by the enzymes and subcloned into the BamHI and EcoRI recognition sites of eukaryotic expression vector EF1/V5-His B (Invitrogen).
Test 2: Production of Expression Cells
Using Lipofectamine 2000 (Invitrogen), cDNA of GPR120 receptor was transfected into CHO/NFAT-BLA cells, and drug-resistant cells were isolated to obtain GPR120 stable expression strains. The GPR120-expressed CHO cells were cultured in DMEM/F12 medium containing 10% fetal bovine serum, 100 units/ml penicillin, 0.1 mg/ml streptomycin sulfate, 250 μg/ml Zeocin, 500 μg/mL Geneticin and 15 mM HEPES.
Test 3: Measurement of Intracellular Calcium Concentration
To the cells was added the test compound diluted with HBSS solution containing 20 mM HEPES and 2.5 mM probenecid. Variations in the intracellular calcium concentration were measured by Fluorescence Imaging Plate Reader (FLIPR; Molecular Devices) to examine the agonist action, and EC50 values were calculated. […]

Test [2] addresses T1, human GPR120. The test is described as follows: IP1 assay (GPR120 assay adapted from Bergsdorf et al.). Format: cell-based. From the text: The EC50 values for the exemplified compounds are provided in the following examples and in the following tables. • IP1 Assay • IP1 assay results were obtained adapting the GPR120 assay described in C. Bergsdorf, et al., Assay Drug Dev. Technol., 2008, 6(1), 39-53. General Schemes

Experimental findings from patent US9708270B2, “Substituted spiropiperidinyl compounds useful as GPR120 agonists” (Merck Sharp & Dohme Corp., priority 2012, dated 2017) are described below.

T1 sequence (Q5NUL3 whole entry, the tested form may be a part): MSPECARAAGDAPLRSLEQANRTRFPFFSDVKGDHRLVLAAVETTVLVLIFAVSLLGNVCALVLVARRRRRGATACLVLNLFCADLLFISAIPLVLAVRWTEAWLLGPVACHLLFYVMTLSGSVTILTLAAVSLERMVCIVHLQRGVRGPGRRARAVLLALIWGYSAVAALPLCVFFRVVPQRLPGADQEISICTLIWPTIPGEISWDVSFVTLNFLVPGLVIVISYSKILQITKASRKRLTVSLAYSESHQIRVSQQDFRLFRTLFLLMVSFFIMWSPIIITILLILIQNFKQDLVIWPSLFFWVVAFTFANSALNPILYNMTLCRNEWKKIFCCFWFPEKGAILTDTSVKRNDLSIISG

In general, EC50 refers to the concentration that produces a half-maximal response. In the case of `O=C(O)CCC1CCC2(CC1)CCN(c1cc(OC3CCC3)ccc1F)CC2` [Example 82, 3-(3-(5-Cyclobutoxy-2-fluorophenyl)-3-azaspiro[5.5]undecan-9-yl)propanoic acid], the EC50 on human GPR120 [1] was determined as 1.26 µM.

As for `O=C(O)CCCC1CCC2(CC1)CCN(c1cc(OC3CCC3)ccc1F)CC2` [Example 83, 4-(3-(5-Cyclobutoxy-2-fluorophenyl)-3-azaspiro[5.5]undecan-9-yl)butanoic acid], the EC50 on human GPR120 [1] amounted to 0.791 µM.

Regarding `O=C(O)CCC1CCC2(CC1)CCN(c1cc(OC3CCC3)ccc1Cl)CC2` [Example 84], at human GPR120 [1], the concentration giving a half-maximal response (EC50) was found to be 1.35 µM.

In the case of `O=C(O)CCC1CCC2(CC1)CCN(c1cc(OC(F)(F)F)ccc1Cl)CC2` [Example 85], the EC50 at human GPR120 [1] worked out at 1.79 µM.

As for `O=C(O)CCCC1CCC2(CC1)CCN(c1cc(OC(F)(F)F)ccc1Cl)CC2` [Example 86], at human GPR120 [1], the EC50 was found to be 2.02 µM.

Take `O=C(O)CCCC1CCC2(CC1)CCN(c1cc(OC3CCC3)ccc1Cl)CC2` [Example 87]: the EC50 on human GPR120 [1] came out at 2.25 µM.

`CC1CC(CC(=O)O)CCC12CCN(c1cc(OC(F)(F)F)ccc1Cl)CC2` (stereo not shown) [Example 89, 2-(3-(2-Chloro-5-(trifluoromethoxy)phenyl)-7-methyl-3-azaspiro[5.5]undecan-9-yl)acetic acid]: at human GPR120 [1], the EC50 was 2.49 µM.

As to `NCCC1CCC2(CC1)CCN(c1cc(OC(F)(F)F)ccc1Cl)CC2` [Example 90, 2-(3-(2-chloro-5-(trifluoromethoxy)phenyl)-3-azaspiro[5.5]undecan-9-yl)ethanamine], the EC50 on human GPR120 [1] was determined as 5.61 µM.

For `O=C(O)CC1CCC2(CCN(c3cccc(OC(F)(F)F)c3)CC2)OC1` (stereo not shown) [Example 95], the EC50 at human GPR120 [1] worked out at 1.9 µM.

As for `O=C(O)CC1CCC2(CCN(c3cc(OC(F)(F)F)ccc3Cl)CC2)OC1` (stereo not shown) [Example 97], the EC50 on human GPR120 [1] is 1.29 µM.

Take `O=C(O)C[C@@H]1CCC2(CCN(c3cc(OC4CCC4)ccc3Cl)CC2)OC1` [Example 98]: on human GPR120 [1], the EC50 is 1.53 µM.

As to `O=C(O)C[C@@H]1CCC2(CCN(c3cc(OC4CCC4)ccc3F)CC2)OC1` [Example 100], the concentration for a half-maximal effect (EC50) on human GPR120 [1] was 4.28 µM.

For `COc1cc(Cl)cc(N2CCC3(CC2)CC(CC(=O)O)CO3)c1` (stereo not shown) [Example 102], on human GPR120 [1], the EC50 stood at 8.1 µM.

`O=C(O)CCC1CCC2(CCN(c3cc(OC4CCC4)ccc3Cl)CC2)C1` (stereo not shown) [Example 105, 3-(8-(2-chloro-5-cyclobutoxyphenyl)-8-azaspiro[4.5]decan-2-yl)propanoic acid]: on human GPR120 [2], the EC50 was 0.0448 µM.

With `N#Cc1ccc(OC(F)(F)F)cc1N1CCC2(CCC(CCC(=O)O)C2)CC1` (stereo not shown) [Example 106], at human GPR120 [2], a half-maximal effect (EC50) was put at 0.22 µM.

In turn, `COc1cc(F)c(N2CCC3(CCC(CCC(=O)O)C3)CC2)cc1OC1CCC1` (stereo not shown) [Example 107] showed an EC50 on human GPR120 [2] of 0.202 µM.
